Measurements as given in US8314068B2, “P2X7 inhibition of epithelial cancers and papillomas” (University Hospitals of Cleveland, priority 2009, dated 2012).
Entries after “also recorded” stand apart in the source; their conditions may differ.

How the values were obtained:
HeLa cells = assay: Apoptosis in HeLa cells; type: cell-based, human
mouse skin [1] = assay: Local BzATP on normal mouse dorsal skin, 16 weeks (safety, TUNEL, Ki67); type: in vivo
Method: BzATP was applied locally twice a week on the surface of the shaved dorsal skin for a total of 16 weeks. The control group included mice that had their back shaved and were treated only with the vehicle. […] See, FIGS. 14A & 14C versus FIGS. 14B & 14D, respectively.
Image-analysis of immunofluorescence data was described (Li et al, 2007). Representative fields were captured and saved in Adobe Photoshop. Pictures were scanned using UN-SCAN-IT (Silk Scientific, Orem Utah) by choosing 3-5 representative fields for each picture. Light intensity in each field was digitized and average pixel density per field was determined using the program software.
(§1) TUNEL assays in tissues cross sections were performed using DeadEnd™ Fluorometric TUNEL System (Promega, Madison, Wis.) according to the manufacturer's protocol. For TUNEL-P2X7 co-staining, tissue cross sections were first assayed for TUNEL, followed by P2X7 immunostaining.
(§2) Experiments using mice were done according to an approved CWRU IACUC IRB protocol [2006-0141]. Experiments utilized 6-8 weeks old FVB female mice (obtained from Charles River, Wilmington, Mass.). The animal's dorsal skin (about 3×5 cm) was shaved using Oster animal clipper (Mountain Home, Ark.) followed by weekly application of Nair® hair remover lotion. Treatments included the application of one or more of the following drugs, directly onto the shaved dorsal skin: DMBA (50 μg/200 μl acetone [950 μM, 190 nmol, 3.3 μg/cm^2]); TPA (3 μg/200 μl acetone [20 μM, 4 nmol, 0.2 μg/cm^2]); BzATP (14.3 μg/200 μl of 2.3/1 vol/vol solution of propylene-glycol [PG]/ethanol [EtOH][100 μM, 20 nmol, 1.0 μg/cm^2]); or the BzATP vehicle only (200 μl of PG/EtOH). DMBA was applied once, while TPA and BzATP were applied twice a week. Skin neoplasia in the mice were induced by the “Two-Step” method, which involved tumor initiation by local treatment with 7,12-dimethylbenz(a)anthracene (DMBA), followed by tumor promotion with local treatment of 12-O-tetradecanoylphorbol-13-acetate (TPA). Guo et al., “Disruption of EphA2 receptor tyrosine kinase leads to increased susceptibility to carcinogenesis in mouse skin” Cancer Res 2006, 66:7050-7058. The concentration/dose of BzATP and frequency of treatments were chosen based on data in cultured cells (supra).
From each animal blood samples were obtained from the retro-bulbar venous complex for ALT (SGPT) and AST (SGOT) assays. In addition, dorsal skin strips were obtained from each animal for microscopic H&E tissue evaluation, Ki67 immunostaining, and in-situ detection of DNA fragmentation by the TUNEL method.
Assays used Liquid ALT and Liquid AST reagent sets (Cat # A7526-150a and A7561-150, respectively) obtained from Pointe Scientific (Canton Mich.), and were performed according to the supplier instructions.

mouse skin [2] = assay: Local BzATP on normal mouse dorsal skin, 4 weeks (tolerability, apoptosis); type: in vivo
Method: BzATP (100 μM in 200 μl [20 nmol, 14.3 μg, 1.0 μg/cm^2]), was applied twice weekly for 4 weeks on the posterior region of the shaved dorsal skin. The concentration/dose of BzATP and frequency of treatments were chosen based on the above discussed cell culture data. Each animal served as its own control by having vehicle-containing solution applied twice weekly for 4 weeks on the anterior region of the shaved dorsal skin.
as §1, §2
The shaved dorsal skin was divided into two equal anterior and posterior areas. Each animal was treated with BzATP applied locally twice a week for […] on the anterior skin area; vehicle only was applied in parallel twice a week for 4 weeks on the posterior skin area. At the end of the experiment animals were euthanized by cervical dislocation and dorsal skin strips were obtained from each animal from the anterior and posterior skin areas for microscopic H&E tissue evaluation and P2X7 immunostaining.

[3] = biological solutions, range of temperatures and pH; cited from earlier work
[4] = system: cancer ectocervical, endocervical, endometrial cells and cancer keratinocytes; conditions: fold lesser apoptosis after BzATP; cited from earlier work
[5] = system: human normal keratinocytes; assay: Apoptosis in cultured human normal keratinocytes; type: cell-based; conditions: BzATP 100 μM with ATP 1 μM or 250 μM
Description: Primary cultures of human normal keratinocytes were generated from discarded foreskins. […] Apoptosis may be quantified in terms of percent solubilized DNA (Wang et al, 2004a), or by using the commercial cell-death detection ELISA kit (Roche Applied Science, Nutley, N.J.) (Feng et al, 2006).

P2X7 pores = assay: Ethidium bromide influx (P2X7 pore formation) in mouse wild-type keratinocytes; type: cell-based
Method: FIG. 17B: Time course of influx of ethidium bromide (Eth-Br).
FIG. 17C: Dose response profile comparison between ΔCa^2+i and Eth-Br influx. Cells were treated with each BzATP concentration for […]. Levels of ΔCa^2+i (empty circles) were determined 2 min after adding BzATP; changes in Eth-Br fluorescence (filled circles) were determined 5 min after adding BzATP. Values=means±SD. Experiments were repeated 3 times. AU=arbitrary units.
Changes in Ca^2+i in cultured cells were determined in terms of changes in intracellular Fluo-4 fluorescence using dynamic confocal laser scanning microscopy. Cultured mouse keratinocytes were loaded with 5 μM Fluo-4/AM, and imaged with a Zeiss LSM 510 inverted real-time confocal microscope. Images were collected at 488 nm/505 nm (exc/emi) at intervals of 10 to 15 seconds after treatment with 100 μM BzATP, added to the perfusate. For ethidium bromide influx experiments, glass-bottomed dishes cultured with mouse keratinocytes were placed in the microscope. Images (collected at 488 nm/505 nm [exc/emi]) were taken before, and at intervals of 30 seconds after adding 5 μM ethidium bromide to the perfusate as described. Average fluorescence intensity was quantified from collated images using MetaVue software (Fryer Company Inc., Huntley, Ill.) by subtracting the basal intensity value.

## Nc1ncnc2c1ncn2[C@@H]1O[C@H](COP(=O)(O)OP(=O)(O)OP(=O)(O)O)[C@@H](OC(=O)c2ccc(C(=O)c3ccccc3)cc2)[C@H]1O [BzATP, 3′-O-(4-benzoylbenzoyl)adenosine triphosphate]
HeLa cells
  effect of BzATP on apoptosis: no significant effect
Mouse skin [1]; 16 weeks
  Ki67 immunoreactivity versus control group: no significant differences in Ki67 immunoreactivity
  histological evaluation of dorsal skin versus control group: no differences
  mean serum levels of ALT (SGPT) and AST (SGOT): in the normal range for the mouse
Mouse skin [1]; 16 weeks, n=3
  TUNEL pixel density, hair-shaft cross sections: 6.1±0.8
  TUNEL staining mean pixel density (±SD), epidermis: 5.2±0.3
Mouse skin [1]; 16 weeks, normal mice
  thinning or ulceration of the skin: did not produce a thinning or ulceration of the skin
Mouse skin [1]; mice, applied locally on the skin
  local or systemic adverse effects of local BzATP treatment: did not result in any local or systemic adverse events; also recorded: no adverse systemic effects; also recorded: no significant effect on the behavior of the animals, feeding habits, body weight, and liver functions; also recorded: did not produce local or systemic adverse effects
Mouse skin [1]; twice a week, 16 weeks, local
  behavior, feeding habits, body weights: no effects were observed
  gross appearance of the treated skin: no noticeable effect
Mouse skin [2]; 1.0 μg/cm^2 twice weekly
  physical characteristics, behavior, feeding habits, weights: no noticeable changes
Mouse skin [2]; twice weekly
  epidermal apoptosis (nuclear morphology, TUNEL): augmented apoptosis of epidermal cells; also recorded: numerous epidermal basal/parabasal cells and epidermal hair shaft cells stained TUNEL positive
  histological H&E evaluation, treated versus control skin: no differences
  visible effect on the dorsal skin: no visible effect on the dorsal skin
[3]
  stability: relatively stable compound in biological solutions and across a broad range of temperatures and pH
[4]
  apoptosis in cancer cells relative to the respective normal cells: 2-5 fold
[5]
  combined pro-apoptotic effect of BzATP with ATP: non-additive
P2X7 pores
  concentration of pre-maximal response, ethidium bromide influx: 100 to 250 µM
  onset of pore formation and augmented calcium influx after adding BzATP: 30 to 60 s
  threshold concentration, ethidium bromide influx: 50 to 100 nM
P2X7 pores; 100 μM BzATP
  influx of ethidium bromide: acute increase in the influx of ethidium bromide
